Assay results from patent US12263187B2, “Treatment of bone marrow pathologies with polysulfated polysaccharides” (PARADIGM BIOPHARMACEUTICALS LTD, priority 2017, dated 2025).
Entries after “also recorded” stand apart in the source; their conditions may differ.

Columns and labels:
[1] = system: Knee OA patients with Bone Marrow Edema Lesions; assay: Example 1: PPS in knee OA patients with Bone Marrow Edema Lesions on MRI (TGA Special Access Scheme); format: in vivo, human; parameters: key to After PPS/BMEL: Severe: (>20 mm); Moderate: (5 mm to 20 mm); Minimal: (<5 mm); Absent; details: for After PPS/BMEL / After PPS/NRS Pain / After PPS/Lysholm Knee Score: 2 mg/kg IM 2x weekly for 3 weeks; for After PPS/NRS Pain / After PPS/Lysholm Knee Score: scored 2 to 4 weeks after last injection; for After PPS/NRS Pain: scale 0-10; for After PPS/Lysholm Knee Score: scale 0-100
Source text: Example 1 is a study of the safety, tolerability and results of patients treated with PPS with Bone Marrow Edema Lesions of the knee and suffering from osteoarthritis under the TGA Special Access Scheme (B). (Approval to use PPS as treatment for the patient was acquired from Department of Health-Therapeutic Goods Administration, Australian Government under the Special Access Scheme (SAS) since the injectable form of PPS was not a registered product in Australia.)
Patients in the study had the following characteristics: • High pain scores • Poor joint function scores • MRI evidence of Bone Marrow Edema Lesions and joint effusions • Kellgren-Lawrence (3-4) OA subjects currently on waiting list for Total Knee Replacement • Failed standard of care including intraarticular injections of corticosteroids • The protocol featured the following: • Treatment: 2× weekly intramuscular injections of 2 mg/kg for 3 weeks (total of 6 injections) • All patients abstained from NSAIDs during PPS treatment • The treatment outcomes of pain and function were scored before and after PPS treatment 2 to 4 weeks after the last PPS injection • All patients had baseline subchondral BML.
Numerical Rating Scale (NRS) is an 11-point scale (0-10). A state of no pain is 0 and the worst pain imaginable is 10.
Lysholm Knee Score is a total score of 0-100 is calculated based on the results from the eight functional components of the Lysholm knee score scale: Limp (5 points), Support (5 points), Locking (15 points), Instability (25 points), Pain (25 points), Swelling (10 points), Stair climbing (10 points), and Squatting (5 points). The total score is assigned to rating categories as follows: 95-100 indicates excellent, 84-94 indicates good, 65-83 indicates fair and <65 indicates poor function.

[2] = system: person with knee osteoarthritis and subchondral bone marrow edema lesions; assay: Example 2: case report of knee osteoarthritis with subchondral BML; format: in vivo, human
Experimental: The patient was administered a course of Pentosan Polysulphate Sodium (PPS) intramuscularly twice weekly for 3 weeks. […] These MRI interpretations corroborate improved clinical outcome measures ensuing therapeutic intervention with PPS.
A person with a history of arthroscopic partial medial meniscectomy presented with pain of the left knee and was on a waiting list for total knee replacement. […] The BML in the medial femoral condyle measured 11×7×12 mm (CC×transverse×AP) and the medial tibial plateau BML measured 8×8×8 mm (CC×transverse×AP). […] Following patient consent, the pain assessment score was determined by the Numerical Rating Scale (NRS) and functional capacity assessments included the Lysholm knee score. At pre-treatment, the NRS pain score was severe with a score of 8 out of 10 (range 0-10) and the Lysholm Knee score was 37 out of 100 reflecting poor knee function indicated by problems in stair climbing and limping.
Since PPS is a weak anticoagulant with 1/15 the activity of heparin, the patient was monitored for safety by assessments of complete blood count, APTT, prothrombin time, liver function tests, renal function tests and serum calcium prior to commencement of treatment and periodically during treatment with Pentosan Polysulphate Sodium. The clinical status of the patient was checked regularly throughout the course of the treatment and follow up period.
After evaluation, the patient was considered suitable for treatment with Pentosan Polysulphate Sodium (PPS) under the SAS. The patient was administered 2 mg/kg of PPS twice weekly with a minimum of three and a maximum of four days between dosages. Six intramuscular injections were administered into the gluteus maximus muscle over a three-week period (2 injections per week). Three follow-up appointments were made at 10, 24 and 38 days post-completion of injection regimen.

[3] = system: patient with chronic lower back pain with a Modic Type 1 pattern on MRI; assay: Example 3: case report for chronic low back pain with Modic Type 1 pattern; format: in vivo, human; details: patient one
Experimental: Patient one, a person with chronic lower back pain with a Modic Type 1 pattern on MRI scan of the L3/L4 and L4 L5 region of the spine presented in the clinics with unresolved persistent pain despite current standard of care treatment with Mobic, an NSAID.
The baseline NRS pain score prior to treatment with PPS was a high score of 7. Patient was administered by subcutaneous injection a dose of 150 mg fixed dose of PPS twice weekly for 4 weeks (ie a total of 8 injections). […] During the course of the treatment the patient had abstained from any other therapeutic intervention.

BMEL = assay: Further work: BMEL assessed by MRI after SC PPS twice-weekly for 6 weeks; format: in vivo; details: 2 mg/kg PPS or fixed dose of 150 mg, slow SC injection twice-weekly for 6 weeks
Modic Changes = assay: Further work: Modic Changes assessed by MRI after SC PPS twice-weekly for 6 weeks; format: in vivo; details: 2 mg/kg PPS or fixed dose of 150 mg, slow SC injection twice-weekly for 6 weeks
[4] = system: Knee OA patients with Bone Marrow Edema Lesions; assay: Example 1: PPS in knee OA patients with Bone Marrow Edema Lesions on MRI (TGA Special Access Scheme); format: in vivo, human; details: standard four week course of PPS
[5] = fraction of the activity of heparin; cited from earlier work

## Pentosan Polysulphate Sodium [PPS]
[1]; patient four, before PPS: Moderate (5 mm to 20 mm)
  After PPS/BMEL: Minimal ((<5 mm))
[1]; patient four, before PPS: 4
  After PPS/NRS Pain: 1
[1]; patient four, before PPS: 73
  After PPS/Lysholm Knee Score: 90
[1]; patient three, before PPS: Severe (>20 mm)
  After PPS/BMEL: Moderate ((5 mm to 20 mm))
[1]; patient three, before PPS: 4
  After PPS/NRS Pain: 0
[1]; patient three, before PPS: 54
  After PPS/Lysholm Knee Score: 73
[1]; patient two, before PPS: Moderate (5 mm to 20 mm)
  After PPS/BMEL: Absent
[1]; patient two, before PPS: 8
  After PPS/NRS Pain: 0
[1]; patient two, before PPS: 37
  After PPS/Lysholm Knee Score: 70
[1]; patients with BMEL and osteoarthritis under TGA SAS(B), 2 mg/kg IM 2x weekly
  adverse events: no adverse events were reported
[2]; 2 mg/kg IM twice weekly for 3 weeks (6 injections), MRI five weeks after first injection, pre-treatment BML 11x7x12 mm and 8x8x8 mm
  bone marrow oedema lesions at the medial femoral condyle and medial tibial plateau on MRI: resolution of medial compartment bone oedema; also recorded: complete resolution; also recorded: complete reduction
[2]; 2 mg/kg IM twice weekly for 3 weeks, axial imaging at level of suprapatellar pouch, five weeks after first injection
  knee (joint) effusion on MRI: reduction in size of knee effusion; also recorded: complete resolution; also recorded: marked reduction; also recorded: reduction in the size
[2]; 2 mg/kg IM twice weekly for 3 weeks, during treatment and follow up period
  adverse events: did not present with any drug-related or nondrug-related adverse response; also recorded: did not report any adverse effects; also recorded: no post-treatment adverse events
[2]; 2 mg/kg IM twice weekly for 3 weeks, four weeks after the last injection, 37 to 65
  improvement of the Lysholm Knee score: 43%
[2]; 2 mg/kg IM twice weekly for 3 weeks, four weeks after the last injection, scale 0-100, pre-treatment score 37
  Lysholm Knee score post-treatment: 65
[2]; 2 mg/kg IM twice weekly for 3 weeks, scale 0-10, pre-treatment score 8
  NRS pain score post-treatment: 0
[3]; 150 mg fixed dose SC twice weekly
  pain soon after the 4th injection: improvement in pain
[3]; 150 mg fixed dose SC twice weekly for 4 weeks, during and after treatment
  adverse events: No adverse events
BMEL
  BMEL volume as assessed by magnetic resonance imaging: consistent BMEL volume reduction
Modic Changes
  Modic Changes as assessed by magnetic resonance imaging: consistent resolution
[4]
  BMEL on MRI: clearly visible BMEL reduction
  pain and mobility scores: improved
[5]
  anticoagulant activity relative to heparin: 1/15
